Measurements reported in PubChem BioAssay (NCI).
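Step 1: Grow cells in 96-well plates. Step 2: Expose to compound for 48 hours at 5 concentrations. Step 3: Interpolate endpoints linearly; if unreached, use highest concentration. TGI is the concentration that stops growth completely.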 *1 amine or outer side, *2 acyl side, *3 side chain or, on linkers, in order; H or OH if unused. Where a SMILES comes first, the peptide text is derived from it. [ ]: non-standard residue; d: D form. The star is where a group is joined. X31 = CC(=O)N(C)SCC(N[*:1])C(=O)[*:2]; Cbz = O=C(OCc1ccccc1)*; Bn = c1ccc(C*)cc1

Key:
Assay in all cases: DTP human tumour cell line panel, 48 h
[1] = test system: BT-549 breast
[2] = test system: UO-31 renal
[3] = test system: SNB-75 CNS
[4] = test system: HCT-116 colon
[5] = test system: IGROV1 ovarian
[6] = test system: OVCAR-4 ovarian
[7] = test system: ACHN renal
[8] = test system: HOP-62 NSCLC
[9] = test system: HT29 colon
[10] = test system: CCRF-CEM leukemia
[11] = test system: HCT-15 colon
[12] = test system: M14 melanoma
[13] = test system: SW-620 colon
[14] = test system: MDA-MB-435
[15] = test system: SF-295 CNS
[16] = test system: MDA-N
[17] = test system: T-47D breast
[18] = test system: RXF 393 renal
[19] = test system: MOLT-4 leukemia
[20] = test system: COLO 205 colon

Row | Structure (SMILES) | TGI [1] [µM] | TGI [2] [µM] | TGI [3] [µM] | TGI [4] [µM] | TGI [5] [µM] | TGI [6] [µM] | TGI [7] [µM] | TGI [8] [µM] | TGI [9] [µM] | TGI [10] [µM] | TGI [11] [µM] | TGI [12] [µM] | TGI [13] [µM] | TGI [14] [µM] | TGI [15] [µM] | TGI [16] [µM] | TGI [17] [µM] | TGI [18] [µM] | TGI [19] [µM] | TGI [20] [µM]
1 | CC(=O)N(C)SCC(NC(=O)C(Cc1ccccc1)NC(=O)OCc1ccccc1)C(=O)NC(Cc1ccccc1)C(=O)NC(Cc1c[nH]c2ccccc12)C(=O)NC(CCCCNC(=O)OCc1ccccc1)C(=O)NC(C(=O)NC(CSN(C)C(C)=O)C(=O)NC(C(N)=O)C(C)OCc1ccccc1)C(C)OCc1ccccc1 (stereo not given) (Cbz-F[X31]FWK(Cbz)T(Bn)[X31]T(Bn)-NH2; configuration not given here) | > 100 | > 100 | > 100 | > 100 | > 100 | > 100 | > 100 | > 100 | > 100 | > 100 | > 100 | > 100 | > 100 | > 100 | > 100 | > 100 | > 100 | > 100 | > 100 | > 100
2 | COC(=O)C1=C(OC(=O)/C=C/c2ccc(Cl)cc2)C(C(=O)OC)[C@@]2(O)[C@@H](C(=O)OC)[C@H](C)C[C@@H]1[C@@H]2C(=O)OC (stereo not given in full) | 53.7 | 57.1 | > 100 | 58.3 | 23.1 | > 100 | 80 | > 100 | 65.8 | 64.8 | 57 | > 100 | > 100 | > 100 | > 100 | 29.5 | > 100 | > 100 | 96.4 | 40.7
3 | CCOC(=O)C(C(=S)SC)c1nn2c(=O)cc(C)nc2s1 (stereo not given) | 34.2 | 40 | 41.3 | 34.3 | 38.1 | 58.4 | 37.8 | 42.7 | 36.9 | 77.5 | 35.3 | 29.8 | 37.2 | 32.4 | 44.6 | 29.8 | 42.6 | 39.8 | 44.2 | 47.5
4 | Cc1ccc2nc(C=Nc3ccc(Cl)cc3)cc(C)c2c1 | 30 | 7.91 | 57.5 | 14.3 | 31.3 | > 83.1 | > 96.4 | 22.5 | 37.8 | 13.1 | 0.4 | 21.1 | 27.2 | 24.1 | 19.3 | 25.2 | 48.1 | 62.3 | > 53.6 | 6.08
5 | C=C(CN1CC2C[C@](C(=O)OC)(c3cc4ccccc4[nH]3)C1C(OC)C2OC)S(=O)(=O)c1ccccc1 (stereo not given in full) | 12.4 | 3.77 | 11.6 | 7.08 | 8.98 | 12.5 | 9.24 | 23.4 | 9.44 | > 77.2 | 8.61 | 9.36 | 22.8 | 7.21 | 14.5 | 8.94 | 28.2 | 10.1 | 2.83 | 6.14
